Experimental findings from publication PMC8206078, “Identification of pyrogallol as a warhead in design of covalent inhibitors for the SARS-CoV-2 3CL protease” (Nature Communications, 2021) are described below.

“And” between values parts separate entries of the source, which are not always exact repeats. Equal values may be shown once. Read-outs that look alike come from different tables or passages of the source.

For assay [1], the target named is T1, SARS-CoV-2 3CLpro (Severe acute respiratory syndrome coronavirus 2, UniProt P0DTD1). The experiment in a line: biochemical. In kind it is biochemical.
Assay [2] has as its target SARS-CoV-2 3CLpro / HEK293T lysate (Severe acute respiratory syndrome coronavirus 2, UniProt P0DTD1). The format is binding.
Assay [3] concerns the target T1, SARS-CoV-2 3CLpro. Conditions: read-out: KI.
Assay [4] deals with T1, SARS-CoV-2 3CLpro.
[5] abbreviates: read-out: Inhibition (%) @10 μM.
The mark [6] stands for this setting: 6.25 µM, read-out: inhibition ratio (%).
Setting [7] is: 25 µM, read-out: inhibition ratio (%).
The mark [8] stands for this setting: 50 µM, read-out: inhibition ratio (%).

The term IC50 denotes the point on the concentration scale where inhibition reaches its midpoint.

In the case of `O=C1c2c(O)cc(O)cc2OC(c2ccc(O)c(O)c2)C1O` (stereo not shown) [Taxifolin], the inhibition at 10 µM on SARS-CoV-2 3CLpro [1] (setting [5]) stood at 28%.

Regarding `O=c1c(-c2ccc(O)cc2)coc2cc(O)cc(O)c12` [Genistein], the inhibition at 10 µM at SARS-CoV-2 3CLpro [1] (setting [5]) came to 15%.

In the case of (+)-Catechin, at SARS-CoV-2 3CLpro [1], the “Inhibition (%) @10 μM” value worked out at 14.0%.

With `O=C1C[C@@H](c2ccc(O)c(O)c2)Oc2cc(O)cc(O)c21` [Eriodictyol], the inhibition at 10 µM on SARS-CoV-2 3CLpro [1] (setting [5]) was 34.5%.

Take `O=c1c(O)c(-c2ccc(O)c(O)c2)oc2cc(O)cc(O)c12` [Quercetin]: at SARS-CoV-2 3CLpro [1] (setting [5]), the inhibition at 10 µM is 41.3%.

For the molecule `O=c1c(-c2ccc(O[C@@H]3O[C@H](CO)[C@@H](O)[C@H](O)[C@H]3O)cc2)coc2cc(O)cc(O)c12` [Sophoricoside], the inhibition at 10 µM on SARS-CoV-2 3CLpro [1] (setting [5]) came out at 10%.

Take `O=c1c(O)c(-c2cc(O)c(O)c(O)c2)oc2cc(O)cc(O)c12` [myricetin, 3,5,7,3′,4′,5′-hexahydroxyflavone]: at SARS-CoV-2 3CLpro [1] (10 µM), the “Inhibition (%) @10 μM” value is listed as over 90%. For the same molecule, the inhibition at 10 µM on SARS-CoV-2 3CLpro [1] (setting [5]) is 97.6%. Moreover, on SARS-CoV-2 3CLpro [1] (read-out: inhibition ratio (%)), the inhibition at 0.3125 µM amounted to 27.5%, the inhibition at 0.625 µM worked out at 44.1%, the inhibition at 5 µM is 96.1% and the inhibition at 10 µM turned out to be 98.2%. Further, on SARS-CoV-2 3CLpro [1] (read-out: inhibition ratio (%)), the inhibition at 20 µM amounted to 97.9%; the inhibition at 40 µM was determined as 98.8%; the inhibition at […] was 65.6% and 85.5%. In assay [2], the “fluorescent labeling in mixture of HEK293T lysate and recombinant 3CLpro” value is on record as “only significantly reduced the fluorescent labeling of the protease”; the “fluorescent labeling of recombinant SARS-CoV-2 3CLpro by maleimide probe” value is “completely block”. Further, the KI (inactivation) on SARS-CoV-2 3CLpro [3] was 16900 nM and 15200 nM and 15000 nM. The “increase in molecular weight of the protease (covalent labeling)” value at SARS-CoV-2 3CLpro [4] was 316 Da.

Consider `O=C1c2c(O)cc(O)cc2O[C@H](c2cc(O)c(O)c(O)c2)[C@H]1O` [dihydromyricetin], for which, at SARS-CoV-2 3CLpro [1] (10 µM), the “Inhibition (%) @10 μM” value is listed as over 90%. On SARS-CoV-2 3CLpro [1] (setting [5]), the inhibition at 10 µM was found to be 93.8%. At SARS-CoV-2 3CLpro [1] (read-out: inhibition ratio (%)), the inhibition at 0.3125 µM stood at 13%, the inhibition at 0.390625 µM was found to be 15%, the inhibition at 0.625 µM was 24.1% and the inhibition at 0.78125 µM was 39.3%. Further, on SARS-CoV-2 3CLpro [1] (read-out: inhibition ratio (%)), the inhibition at 1.5625 µM was 58.9%, the inhibition at 3.125 µM was 82.7%, the inhibition at 5 µM was found to be 87.5% and the inhibition at 6.25 µM came out at 95%. Besides, at SARS-CoV-2 3CLpro [1] (read-out: inhibition ratio (%)), the inhibition at 10 µM worked out at 97.8%; the inhibition at 20 µM came to 99.5%; the inhibition at 40 µM amounted to 98.8%; the inhibition at […] is 45.2% and 85% and 98.5%.

As for `O=c1c(O)c(-c2cc(O)c(O)c(O)c2)oc2cc(OCC3CCCC3)cc(O)c12` [compound 6, 7-O-cyclopentylmethyl-myricetin], the IC50 at SARS-CoV-2 3CLpro [1] (read-out: IC50) was 2.23 µM and 2.28 µM and 2.8 µM and 2.48 µM.

`O=c1c(O)c(-c2cc(O)c(O)c(O)c2)oc2cc(OP(=O)(Oc3ccccc3)Oc3ccccc3)cc(O)c12` [compound 9]: the inhibition at 0.78125 µM on SARS-CoV-2 3CLpro [1] (0.78125 µM, read-out: inhibition ratio (%)) came to 10.1%. For the same molecule, at SARS-CoV-2 3CLpro [1] (3.125 µM, read-out: inhibition ratio (%)), the inhibition at 3.125 µM turned out to be 57.7%. The inhibition at 6.25 µM at SARS-CoV-2 3CLpro [1] (setting [6]) stood at 78.1%. Besides, the inhibition at 25 µM at SARS-CoV-2 3CLpro [1] (setting [7]) amounted to 96%. For the same molecule, the inhibition at 50 µM at SARS-CoV-2 3CLpro [1] (setting [8]) worked out at 99.4%.

As for `O=C1c2c(O)cc(OP(=O)(Oc3ccccc3)Oc3ccccc3)cc2O[C@H](c2cc(O)c(O)c(O)c2)[C@H]1O` [compound 10], the inhibition at 6.25 µM on SARS-CoV-2 3CLpro [1] (setting [6]) is 81.5%. The inhibition at 25 µM at SARS-CoV-2 3CLpro [1] (setting [7]) is 98.9%. In addition, the inhibition at 50 µM at SARS-CoV-2 3CLpro [1] (setting [8]) was 98.6%. For the same molecule, at SARS-CoV-2 3CLpro [1] (100 µM, read-out: inhibition ratio (%)), the inhibition at 100 µM came out at 99.4%. At SARS-CoV-2 3CLpro [1] (200 µM, read-out: inhibition ratio (%)), the inhibition at 200 µM came to 99.6%.

On to `COc1ccc(-c2cc(=O)c3c(O)cc(O)cc3o2)cc1O` [Diosmetin], for which, on SARS-CoV-2 3CLpro [1] (setting [5]), the inhibition at 10 µM was 11.3%.

In the case of `COc1ccc(-c2oc3cc(O)cc(O)c3c(=O)c2O)cc1` [Kaempferide], the inhibition at 10 µM at SARS-CoV-2 3CLpro [1] (setting [5]) worked out at 8.1%.

Regarding `COc1cc(O)c2c(=O)c(O)c(-c3cc(O)c(O)c(O)c3)oc2c1` [compound 3, 7-O-methyl myricetin], half-maximal inhibition at SARS-CoV-2 3CLpro [1] (IC50 (µM)) (IC50) required 0.31 µM. On SARS-CoV-2 3CLpro [1] (read-out: inhibition ratio (%)), the inhibition at 0.15625 µM was found to be 28.3%, the inhibition at 0.3125 µM was determined as 43.1%, the inhibition at 5 µM was 96.8% and the inhibition at 10 µM was found to be 98.5%. The inhibition at […] on SARS-CoV-2 3CLpro [1] (read-out: inhibition ratio (%)) is 89.4% and 96.2%.

Take `COc1ccc([C@@H]2CC(=O)c3c(O)cc(O)cc3O2)cc1O` [Hesperetin]: the inhibition at 10 µM on SARS-CoV-2 3CLpro [1] (setting [5]) was found to be 13.8%.

As to `COc1ccc(-c2coc3cc(O)ccc3c2=O)cc1` [Formononetin], the inhibition at 10 µM at SARS-CoV-2 3CLpro [1] (setting [5]) came to 16%.

In the case of `O=c1c(-c2ccc(O)cc2)coc2cc(O[C@@H]3O[C@H](CO)[C@@H](O)[C@H](O)[C@H]3O)cc(O)c12` [Genistin], at SARS-CoV-2 3CLpro [1] (setting [5]), the inhibition at 10 µM came to 25.5%.

With `O=c1cc(-c2ccc(O)cc2)oc2cc(O)cc(O)c12` [Apigenin], the inhibition at 10 µM at SARS-CoV-2 3CLpro [1] (setting [5]) is -1%.

For the molecule `COc1cc(-c2oc3cc(O)cc(O)c3c(=O)c2O)ccc1O` [Isorhamnetin], at SARS-CoV-2 3CLpro [1] (setting [5]), the inhibition at 10 µM was -2.6%.

For `COc1cc(O)c2c(c1)O[C@H](c1cc(O)c(O)c(O)c1)[C@@H](O)C2=O` [compound 7, 7-O-methyl dihydromyricetin], at SARS-CoV-2 3CLpro [1] (IC50 (µM)), the IC50 is 270 nM (2×) and 240 nM. Also, at SARS-CoV-2 3CLpro [1] (read-out: inhibition ratio (%)), the inhibition at 0.0488281 µM turned out to be 8.15%, the inhibition at 0.0976562 µM worked out at 25.7%, the inhibition at 0.390625 µM was found to be 54.6% and the inhibition at 0.78125 µM stood at 84.2%. Further, at SARS-CoV-2 3CLpro [1] (read-out: inhibition ratio (%)), the inhibition at 1.5625 µM is 97.1%, the inhibition at 3.125 µM worked out at 94.4%, the inhibition at 6.25 µM turned out to be 98.2% and the inhibition at 25 µM was determined as 94.6%. Moreover, on SARS-CoV-2 3CLpro [1] (read-out: inhibition ratio (%)), the inhibition at 50 µM came out at 95.6%; the inhibition at […] was 36.2% and 99.3%.

As to Biochanin A, the “Inhibition (%) @10 μM” value at SARS-CoV-2 3CLpro [1] is 5.0%.

For `O=c1cc(-c2ccc(O)c(O)c2)oc2cc(O)cc(O)c12` [Luteolin], the “Inhibition (%) @10 μM” value at SARS-CoV-2 3CLpro [1] (10 µM) was -4.1%.
